These are literature values, as cited in article PMC8698672, “Selective Anticancer and Antimicrobial Metallodrugs Based on Gold(III) Dithiocarbamate Complexes” (Biomedicines, 2021).

This series has as its system Caco-2/TC7 tumor cells. Particulars: reference drugs, Caco-2 tumor cells; ref [27]; cited from earlier work.

Usually IC50 stands for the point on the concentration scale where inhibition reaches its midpoint. Regarding `CC(=O)OC[C@H]1O[C@@H]([S-])[C@H](OC(C)=O)[C@@H](OC(C)=O)[C@@H]1OC(C)=O.CCP(CC)CC.[Au+]` [auranofin, 2,3,4,6-tetra-o-acetyl-1-thio-b-D-glucopyranosato-(S)-triethylphosphine gold(I)], the IC50 is 2100 ± 400 nM.
